Active and inactive are the calls of the source. The rule behind the calls is not given here.
Columns and labels:
[1] = tested on: LNCaP; test: Antitumor activity against human LNCaP cells xenografted in BALB/c nude mouse assessed as inhibition of tumor growth at 2.5 to 5 mg/kg, po administered once every 4th day for 3 weeks; type: functional, organism-based; settings: dose 2.5-5 mg/kg
[2] = Toxicity in ICR mouse assessed as testis damage at 30 to 50 mg/kg, iv administered every second day for 14 days; type: organism-based; settings: in vivo, 336 h, dose 30-50 mg/kg, time 14 day
[3] = tested on: CWR22R; test: Induction of apoptosis in human 22Rv1 cells assessed as increase in PARP level at 1 uM measured after 48 hrs by Western blot analysis; type: functional, cell-based
[4] = Toxicity in ICR mouse assessed as animal weight loss at 30 to 50 mg/kg, iv administered every second day for 14 days; type: organism-based; settings: in vivo, 336 h, dose 30-50 mg/kg, time 14 day
[5] = Toxicity in ICR mouse assessed as lung damage at 30 to 50 mg/kg, iv administered every second day for 14 days; type: organism-based; settings: in vivo, 336 h, dose 30-50 mg/kg, time 14 day
[6] = tested on: LNCaP; test: Antitumor activity against human LNCaP cells xenografted in BALB/c nude mouse assessed as downregulation of FKBP5 level at 5 mg/kg, ip administered once every 4th day for 3 weeks and measured at 2 hrs post dose; type: functional, organism-based
[7] = Biodistribution in BALB/c mouse testis xenografted with human 22Rv1 cells at 2.5 mg/kg, iv measured at 0.5 to 1 hrs; type: ADME, organism-based, CWR22R; settings: in vivo, time 0.5-1 hrs
[8] = Biodistribution in BALB/c mouse kidney xenografted with human 22Rv1 cells at 2.5 mg/kg, iv measured at 0.5 to 1 hrs; type: ADME, organism-based, CWR22R; settings: in vivo, time 0.5-1 hrs
[9] = Toxicity in BALB/c nude mouse xenografted with human LNCaP cells assessed as animal weight loss at 2.5 mg/kg, ip administered once every 4th day for 3 weeks; type: organism-based; settings: in vivo, 504 h
[10] = Toxicity in ICR mouse assessed as heart damage at 30 to 50 mg/kg, iv administered every second day for 14 days; type: organism-based; settings: in vivo, 336 h, dose 30-50 mg/kg, time 14 day
[11] = Downregulation of AR-regulated PSA protein level in human LNCaP cells at 300 nM measured for 48 hrs in presence of AR agonist, R1881 in charcoal stripped serum by Western blot analysis relative to control; type: functional
[12] = Toxicity in BALB/c nude mouse xenografted with human LNCaP cells assessed as animal weight loss at 5 mg/kg, ip administered once every 4th day for 3 weeks; type: organism-based; settings: in vivo, 504 h
[13] = tested on: LNCaP; test: Induction of apoptosis in human LNCaP cells assessed as increase in PARP level at 1 uM measured after 48 hrs by Western blot analysis; type: functional, cell-based
[14] = Biodistribution in BALB/c mouse tumor xenografted with human 22Rv1 cells at 2.5 mg/kg, iv measured at 0.5 to 1 hrs; type: ADME, organism-based, Neoplasm, CWR22R; settings: in vivo, time 0.5-1 hrs
[15] = tested on: LNCaP; test: Induction of apoptosis in human LNCaP cells assessed as increase in caspase-3 level at 1 uM measured after 48 hrs by Western blot analysis; type: functional, cell-based
[16] = tested on: LNCaP; test: Antitumor activity against human LNCaP cells xenografted in BALB/c nude mouse assessed as downregulation of AR-FL level at 5 mg/kg, ip administered once every 4th day for 3 weeks and measured at 2 hrs post dose; type: functional, organism-based
[17] = Downregulation of AR-regulated FKBP5 protein level in human LNCaP cells at 300 nM measured for 48 hrs in presence of AR agonist, R1881 in charcoal stripped serum by Western blot analysis relative to control; type: functional
[18] = Biodistribution in BALB/c mouse heart xenografted with human 22Rv1 cells at 2.5 mg/kg, iv measured at 0.5 to 1 hrs; type: ADME, organism-based, CWR22R; settings: in vivo, time 0.5-1 hrs
[19] = Biodistribution in BALB/c mouse spleen xenografted with human 22Rv1 cells at 2.5 mg/kg, iv measured at 0.5 to 1 hrs; type: ADME, organism-based, CWR22R; settings: in vivo, time 0.5-1 hrs
[20] = tested on: LNCaP; test: Antitumor activity against human LNCaP cells xenografted in BALB/c nude mouse assessed as downregulation of PSA level at 5 mg/kg, ip administered once every 4th day for 3 weeks and measured at 2 hrs post dose; type: functional, organism-based
[21] = tested on: LNCaP; test: Antitumor activity against human LNCaP cells xenografted in BALB/c nude mouse assessed as downregulation of TMPRSS2 level at 5 mg/kg, ip administered once every 4th day for 3 weeks and measured at 2 hrs post dose; type: functional, organism-based
[22] = Biodistribution in BALB/c mouse tumor xenografted with human 22Rv1 cells at 2.5 mg/kg, iv measured at 12 hrs; type: ADME, organism-based, Neoplasm, CWR22R; settings: in vivo
[23] = tested on: LNCaP; test: Downregulation of AR-regulated TMPRSS2 protein level in human LNCaP cells measured for 48 hrs in presence of AR agonist, R1881 in charcoal stripped serum by Western blot analysis; type: functional, cell-based; settings: dose 300-1000 nM
[24] = Downregulation of AR-regulated TMPRSS2 protein level in human LNCaP cells at 300 nM measured for 48 hrs in presence of AR agonist, R1881 in charcoal stripped serum by Western blot analysis relative to control; type: functional
[25] = tested on: CWR22R; test: Antitumor activity against human 22Rv1 cells xenografted in BALB/c nude mouse assessed as tumor growth inhibition at 2.5 mg/kg, ip administered once every 4th day for 3 weeks; type: functional; settings: 22Rv1, 504 h, read-out: TGI
[26] = tested on: Androgen receptor (Homo sapiens), P10275 [UNDEFINED MUTATION]; test: Induction of AR-V7 degradation in human 22Rv1 cells at 100 nM by Western blot analysis; type: cell-based; settings: time <= 48.0 hrs, TDE = time-dependent effect
Sequence of Androgen receptor (Homo sapiens), P10275 [UNDEFINED MUTATION] (P10275 whole entry, looked up, change not shown): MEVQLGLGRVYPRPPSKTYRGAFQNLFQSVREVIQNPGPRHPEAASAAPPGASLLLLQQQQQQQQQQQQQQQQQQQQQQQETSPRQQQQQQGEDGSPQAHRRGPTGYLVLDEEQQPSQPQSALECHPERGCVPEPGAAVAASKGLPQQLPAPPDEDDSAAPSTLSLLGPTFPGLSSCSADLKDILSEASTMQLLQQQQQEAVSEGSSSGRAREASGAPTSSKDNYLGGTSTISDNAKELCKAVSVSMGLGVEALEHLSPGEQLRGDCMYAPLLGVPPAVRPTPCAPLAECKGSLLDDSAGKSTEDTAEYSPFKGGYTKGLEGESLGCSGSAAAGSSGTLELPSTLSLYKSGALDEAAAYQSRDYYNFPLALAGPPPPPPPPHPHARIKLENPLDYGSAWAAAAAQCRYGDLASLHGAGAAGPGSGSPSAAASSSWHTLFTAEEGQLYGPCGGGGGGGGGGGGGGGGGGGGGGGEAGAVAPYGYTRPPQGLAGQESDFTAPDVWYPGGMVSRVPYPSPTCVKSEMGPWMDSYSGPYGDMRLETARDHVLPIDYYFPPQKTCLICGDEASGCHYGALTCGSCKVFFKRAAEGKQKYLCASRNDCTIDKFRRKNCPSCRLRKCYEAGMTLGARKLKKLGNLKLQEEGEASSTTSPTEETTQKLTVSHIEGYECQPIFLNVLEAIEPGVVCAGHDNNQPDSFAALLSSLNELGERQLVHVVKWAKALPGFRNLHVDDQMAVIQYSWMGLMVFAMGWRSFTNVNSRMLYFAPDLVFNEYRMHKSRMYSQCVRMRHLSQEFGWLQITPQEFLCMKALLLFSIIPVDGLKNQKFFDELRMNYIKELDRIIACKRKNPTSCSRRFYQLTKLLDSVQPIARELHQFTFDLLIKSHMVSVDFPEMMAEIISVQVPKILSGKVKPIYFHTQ

[27] = Toxicity in ICR mouse assessed as liver damage at 30 to 50 mg/kg, iv administered every second day for 14 days; type: organism-based; settings: in vivo, 336 h, dose 30-50 mg/kg, time 14 day
[28] = tested on: CWR22R; test: Induction of apoptosis in human 22Rv1 cells assessed as increase in caspase-3 level at 1 uM measured after 48 hrs by Western blot analysis; type: functional, cell-based

Structure (SMILES): CC(C)c1cc(-c2n[nH]c(=O)n2-c2ccc(CN3CCN(CC4CCN(c5ccc(C(=O)N[C@H]6CC[C@H](Oc7ccc(C#N)c(Cl)c7)CC6)nn5)CC4)CC3)cc2)c(O)cc1O
- Activity [1]: Active
- Activity [2]: Non-Toxic
- Activity [3]: Active
- Activity [4]: Non-Toxic
- Activity [5]: Non-Toxic
- Activity [6]: Active
- Drug uptake [7]: Active
- Drug uptake [8]: Active
- Activity [9]: 10%
- Activity [10]: Non-Toxic
- Activity [11]: >50%
- Activity [12]: 10%
- Activity [13]: Active
- Drug uptake [14]: Active
- Activity [15]: Active
- Activity [16]: Active
- Activity [17]: >50%
- Drug uptake [18]: Active
- Drug uptake [19]: Active
- Activity [20]: Active
- Activity [21]: Active
- Drug uptake [22]: Active
- Activity [23]: Dose-Dependent Effect
- Activity [24]: >50%
- inhibition in vivo at 2.5 mg/kg [25]: 50%
- Activity [26]: Tde
- Activity [27]: Non-Toxic
- Activity [28]: Active

Source: ChEMBL document CHEMBL5380834, “Design, Synthesis, and Biological Evaluation of Androgen Receptor (AR) Antagonist-Heat Shock Protein 90 (Hsp90) Inhibitor Conjugates for Targeted Therapy of Castration-Resistant Prostate Cancer” (J Med Chem, 2023)
